One series deals with T1, TbSTT3A (Trypanosoma brucei, UniProt Q57W34).
T1 sequence (Q57W34 1-801): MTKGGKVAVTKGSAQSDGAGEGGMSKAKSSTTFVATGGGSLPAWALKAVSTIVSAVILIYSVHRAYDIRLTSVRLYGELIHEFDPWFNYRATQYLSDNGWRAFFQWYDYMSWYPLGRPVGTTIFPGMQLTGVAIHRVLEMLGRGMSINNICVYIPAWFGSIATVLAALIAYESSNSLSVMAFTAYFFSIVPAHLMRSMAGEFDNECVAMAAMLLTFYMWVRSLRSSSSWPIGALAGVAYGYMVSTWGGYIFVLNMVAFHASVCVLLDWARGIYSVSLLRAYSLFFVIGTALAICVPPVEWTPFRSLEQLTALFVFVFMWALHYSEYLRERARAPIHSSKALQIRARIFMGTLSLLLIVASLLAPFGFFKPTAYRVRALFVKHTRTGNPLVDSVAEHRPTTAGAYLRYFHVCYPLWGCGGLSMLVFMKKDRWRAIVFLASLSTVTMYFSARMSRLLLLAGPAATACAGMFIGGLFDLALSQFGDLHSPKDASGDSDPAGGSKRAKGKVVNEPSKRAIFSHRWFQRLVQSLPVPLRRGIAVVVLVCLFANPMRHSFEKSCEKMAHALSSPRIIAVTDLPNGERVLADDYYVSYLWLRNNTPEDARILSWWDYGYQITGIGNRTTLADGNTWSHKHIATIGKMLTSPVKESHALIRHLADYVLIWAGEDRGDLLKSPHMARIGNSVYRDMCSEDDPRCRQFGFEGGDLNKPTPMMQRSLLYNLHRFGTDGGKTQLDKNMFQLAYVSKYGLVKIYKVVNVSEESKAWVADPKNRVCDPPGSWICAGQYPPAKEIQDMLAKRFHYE
The series can be described thus: In vitro glycosylation assay, turnover rate of acceptor peptides (Tricine SDS-PAGE fluorescence). It counts as biochemical. As to conditions: 50 µM donor, overnight incubation, vast excess substrate. As for the experimental part: Fig. 2. Optimization of the acceptor peptide sequence. (A) Synthetic acceptor peptides are shown in single letter code. The acceptor asparagine (zero position of the sequon) is indicated in red. Glycosylation experiments were performed and the fluorescently labeled substrate (G0) and product (G1) were quantified following Tricine SDS-PAGE analysis. (B) Turnover rates after fitting the time points by linear regression using PRISM. Error bars indicate standard error of the fitting. (C) Kinetic analysis of substrate peptides: glycosylation experiments were performed with 20 nM purified TbSTT3A, 50 µM farnesyl-PP-chitobiose, 10 mM MnCl2, 150 mM NaCl, 20 mM Hepes pH 7.5, 0.035% DDM, 0.007% CHS and different concentrations of peptides varying from 2 to 60 µM. Data points reflect the mean of three separate measurements. Error bars indicate standard deviations. Data were fitted by nonlinear regression according to the Michaelis–Menten formula using PRISM. This figure is available in black and white in print and in color at Glycobiology online.
Reaction mixtures contained 20 nM purified TbSTT3A protein, 50µM farnesyl-PP-GlcNAc or farnesyl-PP-chitobiose, 10 mM MnCl2, 150 mM NaCl, 20 mM Hepes pH 7.5, 0.035% DDM, 0.007% CHS and 20 µM of the peptide. Reactions were incubated at 30°C. Samples were taken at different time points and reactions were stopped by the addition of 4X SDS Laemmli buffer. Samples were diluted 200-fold prior to analysis by Tricine SDS-PAGE consisting of a 16% resolving gel with 6 M urea, a 10% spacer gel and a 4% stacking gel ([Schägger 2006]). Fluorescent bands for peptide and glycopeptide were visualized by using a Typhoon Trio Plus imager (GE Healthcare) with excitation set at 488 nm and using a 526 nm SP emission filter. The amount of formed glycopeptide was determined from band intensities of fluorescence gel scans (ImageJ) ([Gerber et al. 2013]). Turnover rate determination was performed by fitting of the data to linear regression using PRISM software.
Supplementary Figure 2: Glycosylation Assays with farnesyl-PP-GlcNAc. In vitro glycosylation experiments were performed with 20nM purified TbStt3A purified protein, 50µM Farnesyl-PP-GlcNAc or Farnesyl-PP-GlcNac2, 10 mM MnCl2, 150 mM NaCl, 20 mM Hepes pH 7.5, 0.035% DDM, 0.007% CHS and 10 µM of the peptide P1.

Another series has as its target PglB (Campylobacter lari, UniProt B9KDD4). As to the kind of experiment: In vitro substrate test with PglB. It counts as biochemical. The note with it: data not shown.
Another series relates to bacterial flippase PglK. More on the design: method as in Perez et al. 2015. The note with it: in detergent; ref Perez et al. 2015; cited from earlier work.
The test system of series [1] is octa-subunit OST complex from pig liver. On the set-up: method as in Bause et al. 1995. As to conditions: ref Bause et al. 1995; cited from earlier work.
For series [2], the system named is octa-subunit OST complex from yeast. On the set-up: method as in Tai and Imperiali 2001. As to conditions: ref Tai and Imperiali 2001; cited from earlier work.
Substrate in series [3]: CC(=O)NC1C(OC2C(CO)OC(OP(=O)(O)OP(=O)(O)OCCC(C)CCC=C(C)CCC=C(C)CCC=C(C)C)C(NC(C)=O)C2O)OC(CO)C(O)C1O
The series can be described thus: Michaelis-Menten kinetics of the LLO analogs. Format: biochemical, Trypanosoma brucei. The note with it: other: 20 nM TbSTT3A, 10 µM acceptor peptide, varying LLO analog concentration; pH 7.5. The method, then:
(§1) Fig. 3. (A) Structure of the LLO analogs synthesized (1a) (S)-Citronellyl-PP-Chitobiose, C10; (1b) farnesyl-PP-chitobiose, C15; (1c) (S)-NerylCitronellyl-PP-chitobiose, C20; (1d) (S)-farnesylCitronellyl-PP-chitobiose, C25. (B) Kinetic analysis of synthetic LLO analogs. Glycosylation experiments were performed with 20 nM purified TbSTT3A, 10 µM […], 10 mM MnCl2, 150 mM NaCl, 20 mM Hepes pH 7.5, 0.035% DDM, 0.007% CHS and different concentrations of synthetic LLO analogs. Data points reflect the mean of 3 separate measurements. Error bars indicate standard deviations. Data were fitted by nonlinear regression according to the Michaelis–Menten formula using PRISM software. This figure is available in black and white in print and in color at Glycobiology online.
(§2) For Michaelis–Menten kinetics of the LLO analogs, reaction mixtures containing 20 nM TbSTT3A protein, 10 µM peptide P11, 10 mM MnCl2, 150 mM NaCl, 20 mM Hepes pH 7.5, 0.035% DDM and 0.007% CHS were incubated with different concentrations of LLO analogs (10–900 µM, for 1a; 2–60 µM, for 1b; 1–50 µM, for 1c and 1–20 µM, for 1d). Samples were taken at different time points and turnover rates of the reactions were determined as before. Data were fitted by nonlinear regression according to the Michaelis–Menten formula using PRISM software.

Substrate in series [4]: CC(=O)N[C@H]1[C@@H](OP(=O)(O)OP(=O)(O)OC/C=C(\C)CC/C=C(\C)CCC=C(C)C)O[C@H](CO)[C@@H](O[C@@H]2O[C@H](CO)[C@@H](O)[C@H](O)[C@H]2NC(C)=O)[C@@H]1O
As to the kind of experiment: Michaelis-Menten kinetics of the LLO analogs. Format: biochemical, Trypanosoma brucei. As to conditions: other: 20 nM TbSTT3A, 10 µM acceptor peptide, varying LLO analog concentration; pH 7.5. The method, then:
as §1, §2

Substrate in series [5]: CC(=O)N[C@H]1[C@@H](OP(=O)(O)OP(=O)(O)OCC[C@@H](C)CC/C=C(/C)CC/C=C(\C)CC/C=C(\C)CCC=C(C)C)O[C@H](CO)[C@@H](O[C@@H]2O[C@H](CO)[C@@H](O)[C@H](O)[C@H]2NC(C)=O)[C@@H]1O
As to the kind of experiment: Michaelis-Menten kinetics of the LLO analogs. The note with it: other: 20 nM TbSTT3A, 10 µM acceptor peptide, varying LLO analog concentration; pH 7.5. Format: biochemical, Trypanosoma brucei. The method, then: as §1, §2

Substrate in series [6]: [H][C@@]1(O[C@H]2[C@H](O)[C@@H](NC(C)=O)[C@@H](OP(=O)(O)OP(=O)(O)OCC[C@@H](C)CCC=C(C)C)O[C@@H]2CO)O[C@H](CO)[C@@H](O)[C@H](O)[C@H]1NC(C)=O
The series can be described thus: Michaelis-Menten kinetics of the LLO analogs. The note with it: other: 20 nM TbSTT3A, 10 µM acceptor peptide, varying LLO analog concentration; pH 7.5. Format: biochemical, Trypanosoma brucei. As for the experimental part:
as §1, §2

Chain of PglB (B9KDD4 whole entry): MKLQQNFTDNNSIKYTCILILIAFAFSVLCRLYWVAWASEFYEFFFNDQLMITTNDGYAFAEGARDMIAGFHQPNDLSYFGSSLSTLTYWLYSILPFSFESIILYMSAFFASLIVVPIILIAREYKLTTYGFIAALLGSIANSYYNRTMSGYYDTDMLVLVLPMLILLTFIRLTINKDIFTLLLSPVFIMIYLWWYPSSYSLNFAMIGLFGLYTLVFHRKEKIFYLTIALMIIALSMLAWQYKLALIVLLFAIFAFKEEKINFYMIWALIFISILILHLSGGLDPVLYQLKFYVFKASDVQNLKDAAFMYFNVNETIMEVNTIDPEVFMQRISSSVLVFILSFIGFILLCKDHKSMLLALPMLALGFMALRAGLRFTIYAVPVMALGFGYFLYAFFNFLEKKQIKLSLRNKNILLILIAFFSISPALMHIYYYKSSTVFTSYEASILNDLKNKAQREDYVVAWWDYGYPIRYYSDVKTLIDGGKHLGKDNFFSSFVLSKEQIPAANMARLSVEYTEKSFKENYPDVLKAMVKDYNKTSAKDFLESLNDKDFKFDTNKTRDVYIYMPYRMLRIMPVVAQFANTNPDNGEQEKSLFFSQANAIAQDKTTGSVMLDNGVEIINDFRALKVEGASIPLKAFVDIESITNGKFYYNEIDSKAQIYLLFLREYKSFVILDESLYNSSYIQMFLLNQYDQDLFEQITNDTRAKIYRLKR

With `CC(=O)NC1C(OP(=O)(O)OP(=O)(O)OCC=C(C)CCC=C(C)CCC=C(C)C)OC(CO)C(O)C1O` (stereo not shown) [farnesyl-PP-GlcNAc, reference compound], the results for the “Donor substrate for TbSTT3A (glycopeptide product formation)” value at TbSTT3A and at TbSTT3A (listed as farnesyl-PP-GlcNac) were “no glycopeptide product was observed” and “not recognized as a substrate”, respectively. For the same molecule, at PglB, the “In vitro substrate of PglB” value is “accepted as an in vitro substrate”. Besides, in the series with bacterial flippase PglK, the “Effect on ATPase activity of PglK” value is on record as “stimulated ATPase activity”.

Turning to Dol-PP-GlcNAc, the “Recognition as donor substrate in vitro” value in [1] and in series [2] was “poor donor” in each case.

B1: TbSTT3A (Trypanosoma brucei brucei TREU927) (protein)
chain: MTKGGKVAVTKGSAQSDGAGEGGMSKAKSSTTFVATGGGSLPAWALKAVSTIVSAVILIYSVHRAYDIRLTSVRLYGELIHEFDPWFNYRATQYLSDNGWRAFFQWYDYMSWYPLGRPVGTTIFPGMQLTGVAIHRVLEMLGRGMSINNICVYIPAWFGSIATVLAALIAYESSNSLSVMAFTAYFFSIVPAHLMRSMAGEFDNECVAMAAMLLTFYMWVRSLRSSSSWPIGALAGVAYGYMVSTWGGYIFVLNMVAFHASVCVLLDWARGIYSVSLLRAYSLFFVIGTALAICVPPVEWTPFRSLEQLTALFVFVFMWALHYSEYLRERARAPIHSSKALQIRARIFMGTLSLLLIVASLLAPFGFFKPTAYRVRALFVKHTRTGNPLVDSVAEHRPTTAGAYLRYFHVCYPLWGCGGLSMLVFMKKDRWRAIVFLASLSTVTMYFSARMSRLLLLAGPAATACAGMFIGGLFDLALSQFGDLHSPKDASGDSDPAGGSKRAKGKVVNEPSKRAIFSHRWFQRLVQSLPVPLRRGIAVVVLVCLFANPMRHSFEKSCEKMAHALSSPRIIAVTDLPNGERVLADDYYVSYLWLRNNTPEDARILSWWDYGYQITGIGNRTTLADGNTWSHKHIATIGKMLTSPVKESHALIRHLADYVLIWAGEDRGDLLKSPHMARIGNSVYRDMCSEDDPRCRQFGFEGGDLNKPTPMMQRSLLYNLHRFGTDGGKTQLDKNMFQLAYVSKYGLVKIYKVVNVSEESKAWVADPKNRVCDPPGSWICAGQYPPAKEIQDMLAKRFHYE
The Km is the substrate concentration at which the rate is half of its maximum. Regarding B1, the Michaelis constant (Km) was determined as 5.3 ± 0.9 µM in series [3], 5.6 ± 0.8 µM in [4], 2.5 ± 0.3 µM in series [5] and 95 ± 18 µM in series [6].

The values are drawn from paper PMC5421464, “Characterization of the single-subunit oligosaccharyltransferase STT3A from Trypanosoma brucei using synthetic peptides and lipid-linked oligosaccharide analogs” (Glycobiology, 2017).
